Results from ChEMBL document CHEMBL1201862, “PubChem BioAssay data set” (2004).
Calls of active or inactive are those of the source.

Tests used:
[1] = biological target: 5-hydroxytryptamine receptor 2A (Mus musculus, UniProt P35363); type: functional, cell-based;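 further: CHO-K1 cells with tagged receptor and beta-arrestin; agonist potency measured as compound-induced activation of the receptor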
[2] = biological target: Mu-type opioid receptor (Homo sapiens, UniProt P35372); type: functional, cell-based;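 further: U2OS cells with beta-arrestin recruitment to OPRM1 by beta-gal complementation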
[3] = activation of miR-122 Renilla sensor silencing – cell-based, Huh7 psiCHECK-miR122, Renilla luciferase, cherry-picked, dose response (AID 651956); type: functional;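 further: huh7 hepatoma cells stably carrying a psiCHECK-2 miR-122 sensor plasmid; renilla luciferase signal reporting endogenous miR-122 activity after 48 h compound exposure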
[4] = biological target: Heat shock protein HSP 90-alpha (Homo sapiens, UniProt P07900); type: functional, organism-based
[5] = biological target: Paired box protein Pax-8 (Homo sapiens, UniProt Q06710); test: PAX8 transcriptional activity inhibition in RMG-I – RMG-I cells, luciferase, cherry-pick, dose response (AID 687027); type: functional, cell-based;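 further: luciferase reporter driven by Pax8 target thyroperoxidase promoter measured by SteadyGlo luminescence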
[6] = OVCAR8 cell viability loss – plate reader, dry powder samples, PAX8 project, dose response (AID 743197); type: functional, cell-based; settings: OVCAR-8
[7] = OVCAR-3 cell viability loss – plate reader, dry powder samples, PAX8 inhibitor project, dose response (AID 743044); type: functional, cell-based
[8] = blockers of HIV-1 envelope-mediated cell-cell fusion – cherry-pick, dose response (AID 652057); type: functional, cell-based
[9] = blockers of HIV-1 ZM109 envelope-driven cell-cell fusion – HeLa effector, CEM target cells, luciferase, cherry-pick, dose response (AID 652058); type: functional, cell-based;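 further: luciferase signal from HIV-1 Env mediated cell-cell fusion of effector and target cells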
[10] = HIV-1 AD8 envelope cell-cell fusion blockers – cherry-pick, dose response (AID 652062); type: functional, cell-based;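 further: luciferase signal from cell-cell fusion driven by HIV-1 clade B AD8 Env; potency is for inhibitors of fusion seen as a drop in luminescence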
[11] = off-target signal loss in HeLa-CEM21 co-culture – HeLa F-luc CTL cells, cherry-picked, counter-screen for HIV-1 Env fusion inhibitor project, dose response (AID 652040); type: functional, cell-based;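 further: potency for signal decrease marking cytotoxic or nonspecific inhibition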
[12] = tested on: BJ; test: cells; type: functional, cell-based; settings: Homo sapiens
[13] = DRD fibroblast viability loss – cell-based, non-viral oncogenic, luminescence, dose response (AID 1934); type: functional; settings: Homo sapiens
[14] = Luminescence Cell-Based Dose Retest to Confirm Inhibitors of Cancer Stem Cells. [Related pubchem assays (depositor defined):AID2717, AID2721]; type: functional; settings: Homo sapiens
[15] = tested on: BJ; test: growth inhibition of engineered Ras-driven BJ cells – cell-based, alamar blue fluorescence, cherrypicked samples, dose response (AID 2631); type: functional; settings: Homo sapiens;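 further: confirmatory dose-response assay in RAS-dependent BJ fibroblasts engineered with TERT, LT and ST, with cytotoxicity read by fluorescence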
[16] = tested on: BJ; test: BJ-TERT fibroblast viability loss – cell-based, RAS-independent, luminescence, dose response (AID 1933); type: functional; settings: Homo sapiens
[17] = tested on: BJ; test: BJ-TERT-LT-ST fibroblast viability loss – cell-based, RAS-independent, luminescence, dose response (AID 1935); type: functional; settings: Homo sapiens;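 further: BJ fibroblasts immortalized with TERT plus LT and ST oncogenes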

Sequence of Mu-type opioid receptor (P35372 whole entry): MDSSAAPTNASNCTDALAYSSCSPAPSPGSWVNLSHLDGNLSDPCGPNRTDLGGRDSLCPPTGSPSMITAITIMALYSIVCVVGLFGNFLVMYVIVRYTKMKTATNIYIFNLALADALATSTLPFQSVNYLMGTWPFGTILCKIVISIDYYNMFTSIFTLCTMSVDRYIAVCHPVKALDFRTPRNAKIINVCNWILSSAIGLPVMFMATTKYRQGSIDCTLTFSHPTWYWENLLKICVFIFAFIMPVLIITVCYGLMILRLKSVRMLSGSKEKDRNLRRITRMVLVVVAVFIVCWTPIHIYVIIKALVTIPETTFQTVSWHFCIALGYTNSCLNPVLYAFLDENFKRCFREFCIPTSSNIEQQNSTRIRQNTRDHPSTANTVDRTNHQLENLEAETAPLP
Sequence of 5-hydroxytryptamine receptor 2A (P35363 whole entry): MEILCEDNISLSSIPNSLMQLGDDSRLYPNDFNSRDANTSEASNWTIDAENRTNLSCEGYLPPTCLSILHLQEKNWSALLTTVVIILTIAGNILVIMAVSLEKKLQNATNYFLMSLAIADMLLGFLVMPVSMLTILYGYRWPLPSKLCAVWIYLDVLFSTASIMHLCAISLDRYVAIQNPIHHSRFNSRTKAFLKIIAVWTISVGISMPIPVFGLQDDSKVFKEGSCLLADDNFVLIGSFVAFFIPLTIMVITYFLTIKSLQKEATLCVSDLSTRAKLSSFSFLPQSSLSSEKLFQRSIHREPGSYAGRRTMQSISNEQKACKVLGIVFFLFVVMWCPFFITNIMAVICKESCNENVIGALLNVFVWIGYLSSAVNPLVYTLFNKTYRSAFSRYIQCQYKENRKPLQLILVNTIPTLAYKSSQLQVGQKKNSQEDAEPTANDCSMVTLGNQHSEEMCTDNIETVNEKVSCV
Sequence of Paired box protein Pax-8 (Q06710 whole entry): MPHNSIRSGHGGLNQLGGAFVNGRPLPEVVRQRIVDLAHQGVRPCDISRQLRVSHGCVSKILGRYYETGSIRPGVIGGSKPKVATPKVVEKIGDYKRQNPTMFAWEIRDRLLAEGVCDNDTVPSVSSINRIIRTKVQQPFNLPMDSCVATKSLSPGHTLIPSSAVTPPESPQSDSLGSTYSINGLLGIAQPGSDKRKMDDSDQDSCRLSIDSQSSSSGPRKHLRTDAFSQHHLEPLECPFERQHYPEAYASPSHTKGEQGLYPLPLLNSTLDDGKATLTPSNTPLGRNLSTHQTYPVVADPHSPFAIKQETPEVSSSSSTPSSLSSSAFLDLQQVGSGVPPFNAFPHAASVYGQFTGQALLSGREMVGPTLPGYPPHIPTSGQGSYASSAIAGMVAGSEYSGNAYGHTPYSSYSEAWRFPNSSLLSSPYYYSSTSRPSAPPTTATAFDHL

Row | EC50 [1] | EC50 [2] | SMILES | AC50 [8] | AC50 [9] | AC50 [10] | other results
1 | 1.02 µM (active) | 92.4 µM (inactive) | O=C(c1cccs1)N1CCN(Cc2ccccc2)CC1 |  |  |  | 
2 |  |  | C[C@@H]1CN([C@H](C)CO)S(=O)(=O)c2ccc(-c3ccccc3)cc2O[C@@H]1CN(C)C(=O)c1ccc2c(c1)OCO2 |  |  |  | AC50 [3]: 27.2 µM (active)
3 |  |  | CN(C)/C=C/C(=O)c1ccc(Oc2ccccc2)cc1 |  |  |  | AC50 [4]: 4.26 µM (active)
4 |  |  | Cc1ccc(CSc2nc3ccsc3c(=O)n2Cc2ccccn2)cc1 |  |  |  | AC50 [4]: 5 µM (active)
5 |  |  | COc1cccc(C#Cc2ccc3c(c2)O[C@@H](CN(C)C(=O)c2ccccn2)[C@H](C)CN([C@@H](C)CO)S3(=O)=O)c1 |  |  |  | AC50 [5]: 5.17 µM (active); AC50 [6]: 34.1 µM (active); AC50 [7]: 41.2 µM (active)
6 |  |  | COc1ccccc1C(=O)NC(CCSC)C(=O)N1CCN(C/C=C/c2ccccc2)CC1 (stereo not given) | 4.51 µM (active) | 2.79 µM (active) | 12.8 µM (active) | AC50 [11]: 10.7 µM (active)
7 |  |  | Cc1ccc(S(=O)(=O)Nc2ccc3c(c2)CC(=O)N([C@H](C)CO)C[C@H](C)[C@H](CN(C)S(=O)(=O)c2ccccc2)O3)cc1 | 0.877 µM (active) | 2.46 µM (active) | 3.38 µM (active) | 
8 | 3.3 µM (active) | 92.5 µM (inactive) | CCCCN(CC)CCCNC(=O)CC1Oc2ccccc2NC1=O (stereo not given) |  |  |  | 
9 |  |  | CC[C@@]1(O)C(=O)OCc2c1cc1n(c2=O)Cc2cc3c(NC(=O)CN)cccc3nc2-1 | 0.618 µM (active) | < 0.26 µM (active) | 14.6 µM (active) | AC50 [5]: 1.11 µM (active); EC50 [12]: 1.46 µM (active); EC50 [13]: 2.4 µM (active); AC50 [14]: 0.281 µM (active); EC50 [15]: 0.418 µM (active); EC50 [16]: 10.3 µM (active); AC50 [11]: 0.896 µM (active); EC50 [17]: 1.2 µM (active)

Row | SMILES | EC50 [1] | EC50 [2] | AC50 [8] | AC50 [9] | AC50 [10] | other results
10 | CCCN(CCC)C1CCc2cccc(O)c2C1 (stereo not given) | 2.3 µM (active) | 92.5 µM (inactive) |  |  |  | 
